Measured values: PMC12121777 (PLOS One, 2025)
Converted amounts (≈) assume the structure as drawn. Read-outs that look alike come from different tables or passages of the source.

Columns and labels:
Mtb 331/88 (i.e., H37Rv) = experiment: MIC, micro method in Šula's semisynthetic medium, drug-susceptible Mtb; assay type: cell-based, Mycobacterium tuberculosis; conditions: Mycobacterium tuberculosis, H37RV
[1] = test system: Mycobacterium avium 330/88; experiment: MIC, micro method in Šula's semisynthetic medium, M. avium; assay type: cell-based
[2] = test system: Mycobacterium kansasii 6509/96; experiment: MIC, micro method in Šula's semisynthetic medium, M. kansasii clinical isolate; assay type: cell-based; conditions: read-out: MIC M. kansasii 6509/96
[3] = 330/88, 336 h, read-out: MIC M. avium 330/88
[4] = 330/88, 504 h, read-out: MIC M. avium 330/88

`CCNC(=O)NNC(=O)c1cc([N+](=O)[O-])cc([N+](=O)[O-])c1` [Compound 4b, 2-(3,5-Dinitrobenzoyl)-N-ethylhydrazine-1-carboxamide] showed an MIC (Mtb 331/88 (i.e., H37Rv); 336 h, 14 days) of 32 µM (≈ 9.51 µg/mL), an MIC (Mtb 331/88 (i.e., H37Rv); 504 h, 21 days) of over 32 µM and an MIC [1, 3] of 1000 µM (≈ 297 µg/mL). The MIC [1, 4] was 1000 µM (≈ 297 µg/mL), the MIC ([2]; 6509/96, 168 h) was 64 µM (≈ 19 µg/mL) and the MIC ([2]; 6509/96, 336 h) was 125 µM (≈ 37.2 µg/mL). For the same compound, the MIC ([2]; 6509/96, 504 h) was 125 µM (≈ 37.2 µg/mL).

In the case of `O=[N+]([O-])c1cc(-c2nnc(NCc3ccccc3)o2)cc([N+](=O)[O-])c1` [Compound 7a, N-Benzyl-5-(3,5-dinitrophenyl)-1,3,4-oxadiazol-2-amine], the MIC (Mtb 331/88 (i.e., H37Rv); 336 h, 14 days) is reported as 0.125 µM (≈ 0.0427 µg/mL), the MIC (Mtb 331/88 (i.e., H37Rv); 504 h, 21 days) is reported as 0.25 µM (≈ 0.0853 µg/mL) and the MIC [1, 3] is reported as 4 µM (≈ 1.37 µg/mL). For the same compound, the MIC [1, 4] was 4 µM (≈ 1.37 µg/mL), the MIC ([2]; 6509/96, 168 h) was 0.5 µM (≈ 0.171 µg/mL) and the MIC ([2]; 6509/96, 336 h) was 1 µM (≈ 0.341 µg/mL). The MIC ([2]; 6509/96, 504 h) was 1 µM (≈ 0.341 µg/mL).

`CCCCCCCCCCCCCCCCNC(=O)NNC(=O)c1cc([N+](=O)[O-])cc([N+](=O)[O-])c1` [Compound 4p, 2-(3,5-Dinitrobenzoyl)-N-hexadecylhydrazine-1-carboxamide] gave an MIC (Mtb 331/88 (i.e., H37Rv); 336 h, 14 days) of 8 µM (≈ 3.95 µg/mL), an MIC (Mtb 331/88 (i.e., H37Rv); 504 h, 21 days) of 16 µM (≈ 7.9 µg/mL) and an MIC [1, 3] of over 1000 µM. It also gave an MIC [1, 4] of over 1000 µM, an MIC ([2]; 6509/96, 168 h) of 8 µM (≈ 3.95 µg/mL) and an MIC ([2]; 6509/96, 336 h) of 16 µM (≈ 7.9 µg/mL). It also gave an MIC ([2]; 6509/96, 504 h) of 16 µM (≈ 7.9 µg/mL).

In the case of `CCNc1nnc(-c2cc([N+](=O)[O-])cc([N+](=O)[O-])c2)o1` [Compound 5b, 5-(3,5-Dinitrophenyl)-N-ethyl-1,3,4-oxadiazol-2-amine], the MIC (Mtb 331/88 (i.e., H37Rv); 336 h, 14 days) is reported as 8 µM (≈ 2.23 µg/mL), the MIC (Mtb 331/88 (i.e., H37Rv); 504 h, 21 days) is reported as 16 µM (≈ 4.47 µg/mL) and the MIC [1, 3] is reported as over 1000 µM. It also gave an MIC [1, 4] of over 1000 µM, an MIC ([1]; 330/88, read-out: MIC M. avium) of over 1000 µM and an MIC ([2]; 6509/96, 168 h) of 16 µM (≈ 4.47 µg/mL). The MIC ([2]; 6509/96, 336 h) was 32 µM (≈ 8.93 µg/mL) and the MIC ([2]; 6509/96, 504 h) was 32 µM (≈ 8.93 µg/mL).

`CCCCCCCCCCCCCCCCNc1nnc(-c2cc([N+](=O)[O-])cc([N+](=O)[O-])c2)o1` [Compound 5p, 5-(3,5-Dinitrophenyl)-N-hexadecyl-1,3,4-oxadiazol-2-amine] was tested, and the MIC (Mtb 331/88 (i.e., H37Rv); 336 h, 14 days) was 8 µM (≈ 3.8 µg/mL), the MIC (Mtb 331/88 (i.e., H37Rv); 504 h, 21 days) was 8 µM (≈ 3.8 µg/mL) and the MIC [1, 3] was 8 µM (≈ 3.8 µg/mL). It also gave an MIC [1, 4] of 16 µM (≈ 7.61 µg/mL), an MIC ([2]; 6509/96, 168 h) of 2 µM (≈ 0.951 µg/mL) and an MIC ([2]; 6509/96, 336 h) of 4 µM (≈ 1.9 µg/mL). For the same compound, the MIC ([2]; 6509/96, 504 h) was 8 µM (≈ 3.8 µg/mL).

Compound `CNC(=O)NNC(=O)c1cc([N+](=O)[O-])cc([N+](=O)[O-])c1` [Compound 4a, 2-(3,5-Dinitrobenzoyl)-N-methylhydrazine-1-carboxamide] has an MIC (Mtb 331/88 (i.e., H37Rv); 336 h, 14 days) of over 32 µM, an MIC (Mtb 331/88 (i.e., H37Rv); 504 h, 21 days) of over 32 µM and an MIC [1, 3] of 1000 µM (≈ 283 µg/mL). The MIC [1, 4] was 1000 µM (≈ 283 µg/mL), the MIC ([2]; 6509/96, 168 h) was 250 µM (≈ 70.8 µg/mL) and the MIC ([2]; 6509/96, 336 h) was 500 µM (≈ 142 µg/mL). For the same compound, the MIC ([2]; 6509/96, 504 h) was 500 µM (≈ 142 µg/mL).

Compound `COc1ccc(CNc2nnc(-c3cc([N+](=O)[O-])cc([N+](=O)[O-])c3)o2)cc1` [Compound 7b, 5-(3,5-Dinitrophenyl)-N-(4-methoxybenzyl)-1,3,4-oxadiazol-2-amine] has an MIC (Mtb 331/88 (i.e., H37Rv); 336 h, 14 days) of at most 0.03 µM, an MIC (Mtb 331/88 (i.e., H37Rv); 504 h, 21 days) of at most 0.03 µM and an MIC [1, 3] of 2 µM (≈ 0.743 µg/mL). The MIC [1, 4] was 2 µM (≈ 0.743 µg/mL), the MIC ([2]; 6509/96, 168 h) was at most 0.03 µM and the MIC ([2]; 6509/96, 336 h) was at most 0.03 µM. It also gave an MIC ([2]; 6509/96, 504 h) of at most 0.03 µM.

`COc1ccc(CNc2nnc(-c3cc([N+](=O)[O-])cc([N+](=O)[O-])c3)s2)cc1` [Compound 8b, 5-(3,5-Dinitrophenyl)-N-(4-methoxybenzyl)-1,3,4-thiadiazol-2-amine] was tested, and the MIC (Mtb 331/88 (i.e., H37Rv); 336 h, 14 days) was at most 0.03 µM, the MIC (Mtb 331/88 (i.e., H37Rv); 504 h, 21 days) was at most 0.03 µM and the MIC [1, 3] was 4 µM (≈ 1.55 µg/mL). It also gave an MIC [1, 4] of 4 µM (≈ 1.55 µg/mL), an MIC ([2]; 6509/96, 168 h) of 0.06 µM (≈ 0.0232 µg/mL) and an MIC ([2]; 6509/96, 336 h) of 0.06 µM (≈ 0.0232 µg/mL). The MIC ([2]; 6509/96, 504 h) was 0.125 µM (≈ 0.0484 µg/mL).

`CCCCCCCCCCCCSc1nnc(-c2cc([N+](=O)[O-])cc([N+](=O)[O-])c2)o1` [Compound 10, 2-(3,5-Dinitrophenyl)-5-(dodecylthio)-1,3,4-oxadiazole] gave an MIC (Mtb 331/88 (i.e., H37Rv); 336 h, 14 days) of 8 µM (≈ 3.49 µg/mL), an MIC (Mtb 331/88 (i.e., H37Rv); 504 h, 21 days) of 8 µM (≈ 3.49 µg/mL) and an MIC [1, 3] of 500 µM (≈ 218 µg/mL). The MIC [1, 4] was 500 µM (≈ 218 µg/mL), the MIC ([2]; 6509/96, 168 h) was 2 µM (≈ 0.873 µg/mL) and the MIC ([2]; 6509/96, 336 h) was 4 µM (≈ 1.75 µg/mL). For the same compound, the MIC ([2]; 6509/96, 504 h) was 8 µM (≈ 3.49 µg/mL).

`CCCCCCCCCCCCCCCCCCNC(=O)NNC(=O)c1cc([N+](=O)[O-])cc([N+](=O)[O-])c1` [Compound 4r, 2-(3,5-Dinitrobenzoyl)-N-octadecylhydrazine-1-carboxamide] was tested, and the MIC (Mtb 331/88 (i.e., H37Rv); 336 h, 14 days) was 8 µM (≈ 4.17 µg/mL), the MIC (Mtb 331/88 (i.e., H37Rv); 504 h, 21 days) was 16 µM (≈ 8.35 µg/mL) and the MIC [1, 3] was over 1000 µM. It also gave an MIC [1, 4] of over 1000 µM, an MIC ([2]; 6509/96, 168 h) of 8 µM (≈ 4.17 µg/mL) and an MIC ([2]; 6509/96, 336 h) of 16 µM (≈ 8.35 µg/mL). For the same compound, the MIC ([2]; 6509/96, 504 h) was 16 µM (≈ 8.35 µg/mL).

In the case of `CCCCCCCCCCCCCCCCCCNc1nnc(-c2cc([N+](=O)[O-])cc([N+](=O)[O-])c2)o1` [Compound 5r, 5-(3,5-Dinitrophenyl)-N-octadecyl-1,3,4-oxadiazol-2-amine], the MIC (Mtb 331/88 (i.e., H37Rv); 336 h, 14 days) is reported as over 32 µM, the MIC (Mtb 331/88 (i.e., H37Rv); 504 h, 21 days) is reported as over 32 µM and the MIC [1, 3] is reported as over 1000 µM. It also gave an MIC [1, 4] of over 1000 µM, an MIC ([1]; 330/88, read-out: MIC M. avium) of over 1000 µM and an MIC ([2]; 6509/96, 168 h) of 64 µM (≈ 32.2 µg/mL). It also gave an MIC ([2]; 6509/96, 336 h) of 64 µM (≈ 32.2 µg/mL) and an MIC ([2]; 6509/96, 504 h) of 64 µM (≈ 32.2 µg/mL).
